Measured values as given in patent US12023345B2, “Compositions and methods for treating lysosomal disorders” (RUSH UNIVERSITY MEDICAL CENTER, priority 2014, dated 2024).

Tests used:
Tfeb [1] = assay: TFEB mRNA by semi-quantitative RT-PCR in mouse primary astrocytes; assay type: cell-based; settings: different concentrations, 5 hr, serum-free
Description: Semi-Quantitative Reverse Transcriptase-Coupled Polymerase Chain Reaction (RT-PCR): Total RNA was isolated from mouse primary astrocytes and human primary astrocytes using RNA-Easy Qiagen (Valencia, CA) kit following manufactures protocol. Semi-quantitative RTPCR was carried out as described earlier (28) using oligo (dT) 12-18 as primer and moloney murine leukemia virus reverse transcriptase (MMLV-RT, Invitrogen) in a 20 μl reaction mixture. The resulting cDNA was appropriately amplified using Promega Master Mix (Madison, WI) and the following primers (Invitrogen) for murine genes: […]
Amplified products were electrophoresed on 2% agarose (Invitrogen) gels and visualized by ethidium bromide (Invitrogen) staining. Glyceraldehyde-3-phosphate dehydrogenase (Gapdh) mRNA was used as a loading control to ascertain that an equivalent amount of cDNA was synthesized from each sample.
Mouse primary astrocytes were incubated with different concentrations (see FIG. 9) of simvastatin and pravastatin (A), (B), cinnamic acid (C), and sodium phenylbutyrate and sodium benzoate (D) for 5 hr. under serum-free condition followed by monitoring the mRNA expression of TFEB by semi-quantitative RT-PCR. Sodium formate (D) was used as a negative control for sodium phenylbutyrate and sodium benzoate.

TFEB [2] = settings: cells from patients suffering from LINCL; cited from earlier work
Tfeb [3] = assay: Tfeb mRNA by quantitative real-time PCR in mouse primary astrocytes; assay type: cell-based; settings: serum free media, 12 hrs, single doses or combination
Description: Isolation of Primary Mouse Astroglia: Astroglia were isolated from mixed glial cultures as described (24, 25) according to the procedure of Giulian and Baker (26). Briefly, on day 9, the mixed glial cultures were washed three times with Dulbecco's modified Eagle's medium/F-12 and subjected to shaking at 240 rpm for 2 h at 37° C. on a rotary shaker to remove microglia. After 2 days, the shaking was repeated for 24 h for the removal of oligodendroglia and to ensure the complete removal of all nonastroglial cells. The attached cells were seeded onto new plates for further studies. Quantitative Real-Time PCR: The mRNA quantification was performed using the ABIPrism7700 sequence detection system (Applied Biosystems, Foster City, CA) using SYBR Select master mix (Applied Biosystems). The mRNA expression of the targeted genes was normalized to the level of Gapdh mRNA and data was processed by the ABI Sequence Detection System 1.6 software.

TFEB [4] = settings: cited from earlier work
[5] = 500 mg SAM given together with aspirin 1300 mg; cited from earlier work

O=C(O)C=Cc1ccccc1 [cinnamic acid]
TFEB mRNA expression (semi-quantitative RT-PCR) (Tfeb [1]): upregulation of TFEB mRNA expression

2-hydroxypropyl-β-cyclodextrin
TFEB-mediated clearance of proteolipid aggregates (TFEB [2]): promotes TFEB-mediated clearance of proteolipid aggregates

CC1=C(/C=C/C(C)=C/C=C/C(C)=C/C(=O)O)C(C)(C)CCC1 [ATRA, all-trans retinoic acid]
Tfeb mRNA expression (qRT-PCR) (Tfeb [3]): increased expression of Tfeb

O=c1c(-c2ccc(O)cc2)coc2cc(O)cc(O)c12 [Genistein, 5,7-dihydroxy-3-(4-hydroxyphenyl)-4H-1-benzopyran-4-one]
TFEB levels and activity, lysosomal biogenesis (TFEB [4]): induction of TFEB levels and activity as well as lysosomal biogenesis

O=C([O-])c1ccccc1.[Na+] [sodium benzoate]
TFEB mRNA expression (semi-quantitative RT-PCR) (Tfeb [1]): upregulation of TFEB mRNA expression

C[S+](CC[C@H](N)C(=O)[O-])C[C@H]1O[C@@H](n2cnc3c(N)ncnc32)[C@H](O)[C@@H]1O (stereo partly shown) [S-adenosyl-methionine]
reduction of the amount of stomach damage [5]: 90%

Cc1ccc(C)c(OCCCC(C)(C)C(=O)O)c1 [gemfibrozil]
Tfeb mRNA expression (qRT-PCR) (Tfeb [3]): increased expression of Tfeb
